# Source: patent US20040266732A1, “Therapeutic agents, methods, and treatments” (priority 2002, published 2004)
# What was measured:
# [1] = tested on: NCI-H226 human non-small cell lung cancer cell line; assay: MTS assay; assay type: cell-based
# Experimental: Methods The MTS assay was employed in the evaluation of these compounds. The cells were harvested, centrifuged to remove the medium, and suspended in fresh complete medium. Samples were taken to determine cell density. The cell count was determined with a Coulter Model Z cell counter and viability was measured with propidium iodine staining call by analysis on Coulter EPICS flow cytometer. The cell line was plated at 5×10^3 cells per well in complete medium. On the following day, the cells were closed with the dilutions of the compound. The plates were analyzed on Day for after initiation of treatment.
# The cell line was propagated using standard tissue culture procedures and seeded in microtiter plates prior to dosing. Control groups included a mock treatment, media control, and a positive control (doxorubicin, 1 μM). For each concentration level, eight replicates were treated. The cell line was propagated under sterile conditions at 37° C. in 5% CO2 and 95% humidity. MT103 was stored at 4° C. until dissolved and diluted in complete medium.
# Anti-cellular effects of the compound were assessed with the MTS dye conversion assay. MTS was purchased as a single solution, and stored at −20° C. […] The absorbance of formazan in each monolayer was measured at 490 nm on a Coulter microplate reader at four hours after addition of the MTS.
# HOP-92 = assay: Anchorage-independent colony-forming assay; assay type: cell-based, human; details: for % Inhibition: colonies Day 14
# Experimental: (§1) Testing was conducted employing standard tissue culture techniques and an anchorage-independent colony-forming assay.
# (§2) MT103 was tested against the lung carcinoma cell lines NCI-H226, NCI-H522, and HOP-92. An anchorage-independent colony-forming assay was employed. For the experiment, the cells were harvested, centrifuged to remove the media, and suspended in Iscove's Modified Dulbecco's Medium (IMDM). Samples were taken to determine cell density. The cell count was determined with a Coulter Model Z1 cell counter and viability was measured with propidium iodide staining followed by analysis on a Coulter EPICS XL flow cytometer. Each cell line was plated at 1×10^5 cells per dish (35 mm) in IMDM with 20% FBS and 1% methylcellulose containing the appropriate concentration of test compound or DMSO control. Five concentrations of each compound and a DMSO control were tested in each of the three cell lines. The colonies per plate were counted on Day 14 after the initiation of treatment. The cell lines were propagated under sterile conditions and incubated at 37° C. in HEPA-filtered CO2 tissue culture incubators with 5% CO2 and 95% humidity. The cell line was subcultured weekly to bi-weekly and used in experiments. The test compounds were kept refrigerated under light protected conditions until dissolved in DMSO.
# (§3) Anticellular effects of the compounds on the tumor line were assessed with a colony-forming assay. Briefly, cell were harvested and adjusted to 3×10^6 viable cells/mL in IMDM. Compounds (200×) were prepared in DMSO and serially diluted in DMSO to give appropriate testing concentrations. Cells (100 μL), compound or DMSO control (16.5 μL) and IMDM (183.5 μL) were added to the appropriate assay tubes (12×75 mm) containing 3 mL of complete media, IMDM with 20% FBS and 1% methylcellulose. Tubes were then vortexed and 1.1 mL of the cell suspension was added to each of two 35 mm dishes. These dishes were then incubated for 14 days in HEPA-filtered CO2 tissue culture incubators with 5% CO2 and 95% humidity. The colonies in each dish were then counted and the duplicates were averaged and reported
# NCI-H226 = assay: Anchorage-independent colony-forming assay; assay type: cell-based, human; details: for % Inhibition: colonies Day 14
# Experimental: as §1, §2, §3
# NCI-H522 = assay: Anchorage-independent colony-forming assay; assay type: cell-based, human; details: for % Inhibition: colonies Day 14
# Experimental: as §1, §2, §3
smiles,measurement,setting,value
CC1(C)C2CC[C@@]1(CS(=O)(=O)N(C1CCCCC1)C1CCCCC1)C(O)C2 (stereo partly shown) [MT103],GI50,[1],66 µM
same,IC50,"HOP-92; HOP-92, colony-forming assay",24.2 µM
same,% Inhibition,"HOP-92; HOP-92, 0.8 μM",0%
same,% Inhibition,"HOP-92; HOP-92, 4 μM",0%
same,% Inhibition,"HOP-92; HOP-92, 20 μM",43.3%
same,% Inhibition,"HOP-92; HOP-92, 100 μM",100%
same,% Inhibition,"HOP-92; HOP-92, 500 μM",100%
same,−logGI50 value,"HOP-92; HOP-92, see Table 5",4.6
same,IC50,"NCI-H226; NCI-H226, colony-forming assay",8.39 µM
same,% Inhibition,"NCI-H226; NCI-H226, 0.8 μM",3.1%
same,% Inhibition,"NCI-H226; NCI-H226, 4 μM",36.7%
same,% Inhibition,"NCI-H226; NCI-H226, 20 μM",65.6%
same,% Inhibition,"NCI-H226; NCI-H226, 100 μM",92.2%
same,% Inhibition,"NCI-H226; NCI-H226, 500 μM",99.7%
same,−logGI50 value,"NCI-H226; NCI-H226, see Table 5",5.1
same,IC50,"NCI-H522; NCI-H522, colony-forming assay",81.7 µM
same,% Inhibition,"NCI-H522; NCI-H522, 0.8 μM",0%
same,% Inhibition,"NCI-H522; NCI-H522, 4 μM",0%
same,% Inhibition,"NCI-H522; NCI-H522, 20 μM",0%
same,% Inhibition,"NCI-H522; NCI-H522, 100 μM",57.2%
same,% Inhibition,"NCI-H522; NCI-H522, 500 μM",100%
same,−logGI50 value,"NCI-H522; NCI-H522, see Table 5",4.1
